The source made the active and inactive calls.
Experiments:
[1] = target: T1, RNA-binding protein pos-1 (Caenorhabditis elegans, UniProt G5EF15); assay: inhibitors of POS-1/mex-3 RNA binding, dose response, biochemical, fluorescence polarization (AID 1964);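 further: purified POS-1 fused to maltose binding protein made in E. coli; potency of compounds blocking POS-1 binding to fluorescent RNA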
T1 sequence (G5EF15 whole entry): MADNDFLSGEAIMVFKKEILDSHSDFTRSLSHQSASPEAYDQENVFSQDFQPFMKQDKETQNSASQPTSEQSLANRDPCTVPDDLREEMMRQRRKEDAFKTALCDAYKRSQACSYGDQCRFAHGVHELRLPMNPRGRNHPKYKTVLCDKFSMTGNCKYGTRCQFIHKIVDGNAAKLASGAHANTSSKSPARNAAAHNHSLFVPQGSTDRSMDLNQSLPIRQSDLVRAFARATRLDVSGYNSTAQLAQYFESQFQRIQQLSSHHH

[2] = target: T2, Zinc finger protein mex-5 (Caenorhabditis elegans, UniProt Q9XUB2); assay: MEX-5/TCR-2 RNA interaction inhibitors, dose response, biochemical, C. elegans, fluorescence polarization (AID 1960)
T2 sequence (Q9XUB2 whole entry): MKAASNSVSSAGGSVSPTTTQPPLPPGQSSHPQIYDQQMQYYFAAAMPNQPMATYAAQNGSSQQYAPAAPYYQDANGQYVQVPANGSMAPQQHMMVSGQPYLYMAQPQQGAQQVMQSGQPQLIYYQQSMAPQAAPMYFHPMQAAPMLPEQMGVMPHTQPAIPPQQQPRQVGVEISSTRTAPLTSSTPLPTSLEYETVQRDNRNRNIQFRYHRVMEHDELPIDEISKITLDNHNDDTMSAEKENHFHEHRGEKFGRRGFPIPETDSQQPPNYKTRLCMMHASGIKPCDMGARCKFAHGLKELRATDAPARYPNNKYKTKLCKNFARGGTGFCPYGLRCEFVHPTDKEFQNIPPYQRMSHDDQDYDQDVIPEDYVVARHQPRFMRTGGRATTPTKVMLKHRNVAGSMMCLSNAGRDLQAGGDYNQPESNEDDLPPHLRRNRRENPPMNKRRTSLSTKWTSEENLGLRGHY

[3] = target: T3, Voltage-gated N-type calcium channel alpha-1B subunit/Amyloid beta A4 precursor protein-binding family A member 1 (Homo sapiens, UniProt Q00975+Q02410); type: protein assay
T3 sequence (Q00975 whole entry): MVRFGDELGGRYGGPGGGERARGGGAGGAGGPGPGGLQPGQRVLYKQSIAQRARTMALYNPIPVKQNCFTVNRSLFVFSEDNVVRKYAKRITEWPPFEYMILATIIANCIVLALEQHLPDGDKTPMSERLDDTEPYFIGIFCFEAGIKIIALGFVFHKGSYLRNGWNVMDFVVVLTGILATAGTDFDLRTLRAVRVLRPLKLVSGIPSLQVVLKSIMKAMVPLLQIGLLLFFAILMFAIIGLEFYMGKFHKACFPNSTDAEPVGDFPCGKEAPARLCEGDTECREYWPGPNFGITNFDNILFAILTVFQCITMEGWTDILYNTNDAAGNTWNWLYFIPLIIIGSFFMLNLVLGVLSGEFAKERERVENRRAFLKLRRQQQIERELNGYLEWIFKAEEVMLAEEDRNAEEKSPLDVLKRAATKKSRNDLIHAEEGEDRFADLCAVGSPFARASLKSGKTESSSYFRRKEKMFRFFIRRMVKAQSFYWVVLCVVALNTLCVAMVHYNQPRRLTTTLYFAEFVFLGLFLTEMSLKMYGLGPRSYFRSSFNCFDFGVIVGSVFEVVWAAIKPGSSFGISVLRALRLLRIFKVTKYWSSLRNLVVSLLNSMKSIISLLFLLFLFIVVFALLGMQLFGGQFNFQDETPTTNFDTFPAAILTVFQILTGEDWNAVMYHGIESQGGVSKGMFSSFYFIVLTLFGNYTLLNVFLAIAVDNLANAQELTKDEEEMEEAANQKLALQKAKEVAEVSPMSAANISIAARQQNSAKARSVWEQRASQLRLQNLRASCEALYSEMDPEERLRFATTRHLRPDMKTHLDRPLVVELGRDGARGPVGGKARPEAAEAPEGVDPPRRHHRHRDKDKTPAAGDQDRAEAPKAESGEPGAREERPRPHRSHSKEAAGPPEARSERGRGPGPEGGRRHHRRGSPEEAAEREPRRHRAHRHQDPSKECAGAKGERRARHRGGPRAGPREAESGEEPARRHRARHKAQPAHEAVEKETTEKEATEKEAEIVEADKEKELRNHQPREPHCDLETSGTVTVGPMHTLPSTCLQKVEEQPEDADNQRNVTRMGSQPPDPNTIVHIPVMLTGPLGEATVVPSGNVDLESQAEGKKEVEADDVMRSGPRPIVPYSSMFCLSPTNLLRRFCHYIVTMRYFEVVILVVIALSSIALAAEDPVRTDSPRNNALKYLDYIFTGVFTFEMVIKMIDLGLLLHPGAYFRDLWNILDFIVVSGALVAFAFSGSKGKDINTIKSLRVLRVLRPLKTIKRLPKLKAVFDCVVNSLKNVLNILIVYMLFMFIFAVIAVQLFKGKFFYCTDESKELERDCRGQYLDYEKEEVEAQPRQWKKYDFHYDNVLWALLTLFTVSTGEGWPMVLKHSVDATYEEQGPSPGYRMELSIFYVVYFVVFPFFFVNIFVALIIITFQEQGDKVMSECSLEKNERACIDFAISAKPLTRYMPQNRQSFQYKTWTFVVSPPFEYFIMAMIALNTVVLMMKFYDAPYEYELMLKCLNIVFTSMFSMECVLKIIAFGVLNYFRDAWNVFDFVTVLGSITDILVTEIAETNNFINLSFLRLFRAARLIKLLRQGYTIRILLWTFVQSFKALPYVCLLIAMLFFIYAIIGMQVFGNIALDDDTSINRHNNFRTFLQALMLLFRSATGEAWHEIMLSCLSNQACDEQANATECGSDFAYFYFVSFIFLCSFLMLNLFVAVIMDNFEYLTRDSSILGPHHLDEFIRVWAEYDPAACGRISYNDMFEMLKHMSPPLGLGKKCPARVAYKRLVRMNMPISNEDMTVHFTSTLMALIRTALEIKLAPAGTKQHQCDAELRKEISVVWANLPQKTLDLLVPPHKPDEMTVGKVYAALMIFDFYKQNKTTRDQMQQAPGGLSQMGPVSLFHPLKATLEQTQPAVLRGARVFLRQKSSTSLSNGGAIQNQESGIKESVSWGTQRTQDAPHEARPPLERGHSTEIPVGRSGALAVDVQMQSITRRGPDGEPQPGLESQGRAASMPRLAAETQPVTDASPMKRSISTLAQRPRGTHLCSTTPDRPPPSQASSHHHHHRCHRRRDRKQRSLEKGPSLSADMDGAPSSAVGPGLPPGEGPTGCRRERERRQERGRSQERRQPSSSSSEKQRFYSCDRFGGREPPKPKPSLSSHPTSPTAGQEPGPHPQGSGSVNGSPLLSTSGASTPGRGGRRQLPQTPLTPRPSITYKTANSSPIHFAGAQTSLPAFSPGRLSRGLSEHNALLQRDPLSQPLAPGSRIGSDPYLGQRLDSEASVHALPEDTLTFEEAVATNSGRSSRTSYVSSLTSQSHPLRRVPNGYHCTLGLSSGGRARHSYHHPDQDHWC
T3 sequence (Q02410 whole entry): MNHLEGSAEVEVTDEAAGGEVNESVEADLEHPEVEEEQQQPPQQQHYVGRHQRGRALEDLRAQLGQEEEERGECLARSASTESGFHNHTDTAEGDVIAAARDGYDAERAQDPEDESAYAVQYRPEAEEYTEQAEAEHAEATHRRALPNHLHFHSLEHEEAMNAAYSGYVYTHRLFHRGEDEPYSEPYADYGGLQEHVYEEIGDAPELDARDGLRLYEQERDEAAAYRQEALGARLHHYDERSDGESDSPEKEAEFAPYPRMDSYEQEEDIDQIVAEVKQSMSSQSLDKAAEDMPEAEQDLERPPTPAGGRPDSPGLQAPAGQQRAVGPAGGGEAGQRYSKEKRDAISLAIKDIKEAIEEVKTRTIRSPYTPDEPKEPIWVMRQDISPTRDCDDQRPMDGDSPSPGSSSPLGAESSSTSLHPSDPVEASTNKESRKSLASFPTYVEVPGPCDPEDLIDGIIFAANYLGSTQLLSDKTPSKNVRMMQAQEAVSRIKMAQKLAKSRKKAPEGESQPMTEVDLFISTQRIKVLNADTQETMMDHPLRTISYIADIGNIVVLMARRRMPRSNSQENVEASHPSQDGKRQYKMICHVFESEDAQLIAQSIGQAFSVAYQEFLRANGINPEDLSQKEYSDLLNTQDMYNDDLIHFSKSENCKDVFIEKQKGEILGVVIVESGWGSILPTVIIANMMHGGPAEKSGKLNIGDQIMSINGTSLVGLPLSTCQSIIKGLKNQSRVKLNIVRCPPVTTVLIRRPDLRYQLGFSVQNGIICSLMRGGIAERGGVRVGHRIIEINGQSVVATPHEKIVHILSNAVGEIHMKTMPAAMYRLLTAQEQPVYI

[4] = target: T3, Voltage-gated N-type calcium channel alpha-1B subunit/Amyloid beta A4 precursor protein-binding family A member 1; type: protein assay; remark: listed apart in the source
[5] = target: Induced myeloid leukemia cell differentiation protein Mcl-1 (Homo sapiens, UniProt Q07820); type: functional
Hexokinase HKDC1 = target: T4, Hexokinase HKDC1 (Homo sapiens, UniProt Q2TB90); assay: HKDC1 hexokinase inhibitors, dose response, biochemical, W721R variant (AID 504729); type: functional
T4 sequence (Q2TB90 whole entry): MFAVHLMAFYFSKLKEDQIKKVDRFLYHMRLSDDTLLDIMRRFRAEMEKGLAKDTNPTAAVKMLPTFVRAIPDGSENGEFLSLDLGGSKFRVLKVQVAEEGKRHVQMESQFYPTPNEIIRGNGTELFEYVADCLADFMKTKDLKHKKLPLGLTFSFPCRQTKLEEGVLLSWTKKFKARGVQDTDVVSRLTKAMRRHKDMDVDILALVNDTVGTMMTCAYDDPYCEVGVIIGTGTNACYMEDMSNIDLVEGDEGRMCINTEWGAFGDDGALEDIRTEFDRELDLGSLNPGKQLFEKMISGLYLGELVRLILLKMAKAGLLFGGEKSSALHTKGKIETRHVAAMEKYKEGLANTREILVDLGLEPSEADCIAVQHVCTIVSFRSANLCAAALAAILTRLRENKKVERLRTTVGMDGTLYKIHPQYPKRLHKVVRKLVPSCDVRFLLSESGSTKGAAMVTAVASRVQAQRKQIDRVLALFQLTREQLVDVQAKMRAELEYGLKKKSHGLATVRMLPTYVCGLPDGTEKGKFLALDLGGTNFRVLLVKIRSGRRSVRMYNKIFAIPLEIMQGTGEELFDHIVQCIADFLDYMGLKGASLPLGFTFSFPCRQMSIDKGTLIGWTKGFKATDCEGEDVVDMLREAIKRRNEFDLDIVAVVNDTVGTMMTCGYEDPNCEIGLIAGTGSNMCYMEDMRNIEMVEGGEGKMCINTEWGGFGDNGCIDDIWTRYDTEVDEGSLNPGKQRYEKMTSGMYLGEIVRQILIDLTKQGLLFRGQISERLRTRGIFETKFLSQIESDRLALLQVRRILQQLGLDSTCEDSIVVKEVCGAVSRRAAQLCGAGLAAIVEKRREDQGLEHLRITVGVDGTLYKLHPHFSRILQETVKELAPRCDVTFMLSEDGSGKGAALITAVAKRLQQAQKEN

Vero [6] = assay: Vero cell cytotoxicity, cytotoxicity control for flavivirus capping enzyme inhibitors (AID 588742); type: functional; details: Chlorocebus sabaeus
Vero [7] = assay: cells; type: functional; details: Chlorocebus sabaeus
Genome polyprotein = Genome polyprotein (dengue virus type 2, UniProt P29990); assay: Dengue-2 NS5 methyltransferase inhibitors, primary screen, biochemical, confirmation dose response (AID 588689); type: functional
[8] = target: T5, Polyadenylate-binding protein 1 (Homo sapiens, UniProt P11940); assay: PABP1 MLLE–PAM2 interaction inhibitors, dose response, miRNA deadenylation inhibitor project, biochemical, fluorescence polarization, Cy5-PAM2 peptide, secondary (AID 602260); type: functional; details: read-out: IC50_Mean
T5 sequence (P11940 whole entry): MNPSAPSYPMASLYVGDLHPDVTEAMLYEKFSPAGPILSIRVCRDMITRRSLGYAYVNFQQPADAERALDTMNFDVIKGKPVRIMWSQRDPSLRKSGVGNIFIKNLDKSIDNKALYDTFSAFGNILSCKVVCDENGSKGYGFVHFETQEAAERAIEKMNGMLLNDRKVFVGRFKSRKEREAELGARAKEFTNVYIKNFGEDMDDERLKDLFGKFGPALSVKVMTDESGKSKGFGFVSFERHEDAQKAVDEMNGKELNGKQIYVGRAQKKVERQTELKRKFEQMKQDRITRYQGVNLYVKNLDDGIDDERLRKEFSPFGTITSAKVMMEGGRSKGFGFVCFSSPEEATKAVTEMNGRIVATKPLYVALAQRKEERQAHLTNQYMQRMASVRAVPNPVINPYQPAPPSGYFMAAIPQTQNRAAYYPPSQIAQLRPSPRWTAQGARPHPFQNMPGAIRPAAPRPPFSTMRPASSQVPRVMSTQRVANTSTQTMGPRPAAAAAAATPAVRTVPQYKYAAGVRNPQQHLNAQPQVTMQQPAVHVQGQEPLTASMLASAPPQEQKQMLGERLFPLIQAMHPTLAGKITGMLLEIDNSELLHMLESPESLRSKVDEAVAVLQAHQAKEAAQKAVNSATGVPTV

[9] = target: T5, Polyadenylate-binding protein 1; assay: PABP1 MLLE–PAM2 binding inhibitor potency, dose response, biochemical, fluorescence polarization, FITC-PAM2 peptide (AID 602259); type: functional; details: read-out: IC50_Mean
[10] = target: T6, Histone-lysine N-methyltransferase NSD2 (Homo sapiens, UniProt O96028); type: biochemical
T6 sequence (O96028 whole entry): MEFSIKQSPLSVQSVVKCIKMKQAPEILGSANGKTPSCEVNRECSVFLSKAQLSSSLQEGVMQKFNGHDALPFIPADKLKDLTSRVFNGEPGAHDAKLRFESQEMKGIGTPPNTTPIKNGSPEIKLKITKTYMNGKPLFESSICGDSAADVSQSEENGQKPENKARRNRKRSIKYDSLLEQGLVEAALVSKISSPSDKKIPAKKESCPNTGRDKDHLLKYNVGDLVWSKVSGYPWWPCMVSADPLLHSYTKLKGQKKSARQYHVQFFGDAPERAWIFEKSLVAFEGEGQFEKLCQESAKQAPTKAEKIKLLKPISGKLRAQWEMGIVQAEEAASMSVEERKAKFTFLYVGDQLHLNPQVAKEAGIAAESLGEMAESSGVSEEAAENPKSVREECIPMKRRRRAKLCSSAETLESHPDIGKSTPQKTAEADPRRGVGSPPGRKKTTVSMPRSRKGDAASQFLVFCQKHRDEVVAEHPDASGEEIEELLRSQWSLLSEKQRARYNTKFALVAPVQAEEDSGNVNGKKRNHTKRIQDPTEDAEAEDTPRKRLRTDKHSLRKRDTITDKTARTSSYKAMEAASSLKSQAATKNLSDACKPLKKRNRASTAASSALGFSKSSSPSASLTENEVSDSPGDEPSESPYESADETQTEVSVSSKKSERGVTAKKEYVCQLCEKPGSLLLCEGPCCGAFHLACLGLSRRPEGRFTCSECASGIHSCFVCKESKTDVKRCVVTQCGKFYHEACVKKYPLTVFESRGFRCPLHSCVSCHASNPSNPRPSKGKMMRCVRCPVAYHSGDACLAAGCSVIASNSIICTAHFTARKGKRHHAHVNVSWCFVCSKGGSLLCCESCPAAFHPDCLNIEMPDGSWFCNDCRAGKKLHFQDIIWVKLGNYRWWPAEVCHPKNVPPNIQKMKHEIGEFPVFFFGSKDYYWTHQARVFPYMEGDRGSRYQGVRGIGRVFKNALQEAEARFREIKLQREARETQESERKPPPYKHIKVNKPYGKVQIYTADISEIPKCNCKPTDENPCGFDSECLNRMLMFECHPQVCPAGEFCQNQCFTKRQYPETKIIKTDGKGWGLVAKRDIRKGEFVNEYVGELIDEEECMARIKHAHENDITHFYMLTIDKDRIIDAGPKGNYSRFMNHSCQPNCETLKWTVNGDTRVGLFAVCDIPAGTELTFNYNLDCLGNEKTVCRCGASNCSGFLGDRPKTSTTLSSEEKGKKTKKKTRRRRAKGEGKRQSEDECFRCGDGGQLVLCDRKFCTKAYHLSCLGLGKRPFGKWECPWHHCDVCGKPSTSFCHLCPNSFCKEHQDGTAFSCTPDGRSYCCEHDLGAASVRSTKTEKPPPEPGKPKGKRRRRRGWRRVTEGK

Bcl-2-like protein 10 = Bcl-2-like protein 10 (Homo sapiens, UniProt Q9HD36); assay: displacers of TR3 peptide from Bcl-B, primary screen, selectivity assay for Bfl-1 inhibitor project, biochemical, fluorescence polarization, FITC-TR3 peptide (AID 748);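 further: fluorescence polarization from a fluorescein-labelled TR3 peptide binding purified Bcl-B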
Sequence of Bcl-2-like protein 10 (Q9HD36 whole entry): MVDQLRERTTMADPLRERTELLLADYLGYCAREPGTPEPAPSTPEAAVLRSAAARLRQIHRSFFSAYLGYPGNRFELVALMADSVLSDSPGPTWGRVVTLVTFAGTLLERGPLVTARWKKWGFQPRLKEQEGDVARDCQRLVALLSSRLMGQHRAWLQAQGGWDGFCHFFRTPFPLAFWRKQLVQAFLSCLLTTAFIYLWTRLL

Cytochrome P450 2C19 = Cytochrome P450 2C19 (Homo sapiens, UniProt P33261); assay: Cytochrome panel assay with activity outcomes. Panel member name: p450-cyp2c19 Compounds with AC50 equal or less than 10 uM are considered active; type: functional; details: read-out: AC50
Sequence of Cytochrome P450 2C19 (P33261 whole entry): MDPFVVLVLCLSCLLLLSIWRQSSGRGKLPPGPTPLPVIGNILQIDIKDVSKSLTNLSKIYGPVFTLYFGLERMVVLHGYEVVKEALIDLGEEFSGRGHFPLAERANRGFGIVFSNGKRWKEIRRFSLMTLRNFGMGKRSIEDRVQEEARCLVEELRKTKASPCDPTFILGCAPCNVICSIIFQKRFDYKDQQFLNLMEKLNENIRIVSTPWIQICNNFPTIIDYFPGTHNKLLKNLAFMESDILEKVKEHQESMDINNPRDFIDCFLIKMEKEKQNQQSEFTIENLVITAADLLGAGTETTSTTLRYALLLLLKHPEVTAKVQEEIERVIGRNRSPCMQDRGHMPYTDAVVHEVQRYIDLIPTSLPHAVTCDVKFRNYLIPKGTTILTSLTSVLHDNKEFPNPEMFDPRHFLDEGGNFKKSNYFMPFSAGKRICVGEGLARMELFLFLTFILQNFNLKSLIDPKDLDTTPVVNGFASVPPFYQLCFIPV

[11] = target: T7, Replicative DNA helicase DnaB (Mycobacterium tuberculosis, UniProt P9WMR3); assay: DnaB intein splicing inhibitors, dose response, biochemical, cell-free fluorescence (AID 449749); type: functional
T7 sequence (P9WMR3 whole entry): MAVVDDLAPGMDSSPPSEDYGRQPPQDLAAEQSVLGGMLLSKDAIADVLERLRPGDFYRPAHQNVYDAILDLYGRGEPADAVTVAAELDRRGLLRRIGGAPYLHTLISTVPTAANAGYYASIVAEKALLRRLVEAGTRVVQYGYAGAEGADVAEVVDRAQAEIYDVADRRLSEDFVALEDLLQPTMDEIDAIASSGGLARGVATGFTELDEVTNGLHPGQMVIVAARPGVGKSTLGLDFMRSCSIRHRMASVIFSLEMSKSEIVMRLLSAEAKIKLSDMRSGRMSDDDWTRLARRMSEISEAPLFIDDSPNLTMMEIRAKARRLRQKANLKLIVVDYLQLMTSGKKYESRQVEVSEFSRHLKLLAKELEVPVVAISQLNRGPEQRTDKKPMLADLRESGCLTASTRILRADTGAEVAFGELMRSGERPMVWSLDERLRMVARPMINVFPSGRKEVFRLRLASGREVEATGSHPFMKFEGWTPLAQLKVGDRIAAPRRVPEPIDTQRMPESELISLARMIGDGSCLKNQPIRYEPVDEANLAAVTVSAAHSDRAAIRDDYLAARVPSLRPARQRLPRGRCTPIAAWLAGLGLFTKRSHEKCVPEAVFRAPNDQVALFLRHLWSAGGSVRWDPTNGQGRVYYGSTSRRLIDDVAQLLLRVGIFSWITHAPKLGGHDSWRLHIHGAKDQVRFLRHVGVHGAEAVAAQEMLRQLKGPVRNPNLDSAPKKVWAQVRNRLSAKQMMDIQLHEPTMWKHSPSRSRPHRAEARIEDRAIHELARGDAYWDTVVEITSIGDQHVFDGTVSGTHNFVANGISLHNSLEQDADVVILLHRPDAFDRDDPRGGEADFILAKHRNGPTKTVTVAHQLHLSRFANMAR

Protein RecA = target: T8, Protein RecA (Mycobacterium tuberculosis, UniProt P9WHJ3); assay: Fluorescence Cell-Free Homogeneous Dose Retest to Identify Inhibitors of RecA-Intein Splicing Activity. [Related pubchem assays (depositor defined):AID2097, AID2223, AID489010, AID492950]; type: functional
T8 sequence (P9WHJ3 whole entry): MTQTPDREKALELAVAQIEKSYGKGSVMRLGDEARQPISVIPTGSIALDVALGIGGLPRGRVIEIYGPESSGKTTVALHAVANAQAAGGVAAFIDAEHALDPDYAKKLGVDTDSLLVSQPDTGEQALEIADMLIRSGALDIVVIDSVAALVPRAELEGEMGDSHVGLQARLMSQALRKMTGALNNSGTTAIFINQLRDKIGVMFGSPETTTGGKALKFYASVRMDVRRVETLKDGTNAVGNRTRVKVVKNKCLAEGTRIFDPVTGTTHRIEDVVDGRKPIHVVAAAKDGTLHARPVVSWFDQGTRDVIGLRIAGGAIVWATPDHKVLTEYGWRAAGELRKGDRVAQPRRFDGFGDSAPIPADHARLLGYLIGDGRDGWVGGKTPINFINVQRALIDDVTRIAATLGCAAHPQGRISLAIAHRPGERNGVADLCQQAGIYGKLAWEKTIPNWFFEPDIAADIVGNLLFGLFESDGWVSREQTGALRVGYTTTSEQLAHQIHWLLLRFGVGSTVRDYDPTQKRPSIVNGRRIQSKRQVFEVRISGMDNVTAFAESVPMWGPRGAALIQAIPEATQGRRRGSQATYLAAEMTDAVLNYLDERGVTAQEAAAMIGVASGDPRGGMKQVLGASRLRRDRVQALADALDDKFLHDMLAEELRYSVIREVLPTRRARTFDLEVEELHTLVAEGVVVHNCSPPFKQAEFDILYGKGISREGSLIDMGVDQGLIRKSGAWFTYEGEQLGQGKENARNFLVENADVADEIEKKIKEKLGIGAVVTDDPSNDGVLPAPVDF

Cytochrome P450 2D6 = Cytochrome P450 2D6 (Homo sapiens, UniProt P10635);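 further: CYP2D6 member of a cytochrome P450 panel assay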
Sequence of Cytochrome P450 2D6 (P10635 whole entry): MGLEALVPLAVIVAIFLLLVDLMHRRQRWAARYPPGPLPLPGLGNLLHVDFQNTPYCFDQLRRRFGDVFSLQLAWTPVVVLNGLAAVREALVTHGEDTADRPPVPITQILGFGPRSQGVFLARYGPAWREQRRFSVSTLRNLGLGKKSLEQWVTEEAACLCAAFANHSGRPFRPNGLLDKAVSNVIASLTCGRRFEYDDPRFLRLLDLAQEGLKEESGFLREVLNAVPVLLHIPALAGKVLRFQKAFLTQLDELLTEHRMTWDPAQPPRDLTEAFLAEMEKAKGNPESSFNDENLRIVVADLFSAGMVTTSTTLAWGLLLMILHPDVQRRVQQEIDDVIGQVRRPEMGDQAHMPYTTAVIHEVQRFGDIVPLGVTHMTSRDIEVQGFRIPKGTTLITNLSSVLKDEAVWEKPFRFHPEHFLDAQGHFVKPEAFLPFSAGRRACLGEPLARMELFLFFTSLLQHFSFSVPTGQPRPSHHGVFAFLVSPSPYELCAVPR

Cytochrome P450 3A4 = Cytochrome P450 3A4 (Homo sapiens, UniProt P08684);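 further: CYP3A4 tested as one member of a cytochrome P450 panel screen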

Structure (SMILES)	EC50 [1]	EC50 [2]	IC50 [3]	IC50 [4]	IC50 [5]	IC50 (Hexokinase HKDC1)	CC50 (Vero [6])	CC50 (Vero [7])	IC50 (Genome polyprotein)	IC50 [8]	IC50 [9]	AC50 [10]	IC50 (Bcl-2-like protein 10)	AC50 (Cytochrome P450 2C19)	AC50 [11]	EC50 (Protein RecA)	AC50 (Cytochrome P450 2D6)	AC50 (Cytochrome P450 3A4)
CCN(CC)Cc1cc(O)c(CN(CC)CC)cc1O	14.2 µM (active)	2.77 µM (active)	> 56.8 µM (not active)	2.05 µM (active)	1.58 µM (active)	17.4 µM (active)	> 40 µM (active)	> 25 µM (active)	28.1 µM (active)	> 66 µM (inactive)	> 66 µM (inactive)	> 20 µM (inactive)						
Cc1cnnn1-c1ccc(C(=O)CCl)cc1													> 50 µM (inactive)	39.8 µM (inconclusive)	29.1 µM (active)	11.3 µM (active)	0.0794 µM (inconclusive)	25.1 µM (inconclusive)
